# Measurements as given in patent publication US10538520B2, “Benzamide and nicotinamide compounds and methods of using same” (OncoTartis Inc., priority 2013, dated 2020).
# Key:
# U-937 = assay: Cytotoxicity towards U-937 cell line; format: cell-based; conditions: Homo sapiens
# Experimental: (§1) In various embodiments, the compounds of the disclosure are those in which show IC50 values in cytotoxicity experiments towards cells lines MV4-11 and U937 of >20 μM, 10-20 μM, 5-10 μM, 1-5 μM, or <1 μM.
# (§2) The IC50 is divided into 5 categories: A<1 μM, B 1-5 μM, C 5-10 μM, D 10-20 μM, and E>20 μM.
# MV4-11 = assay: Cytotoxicity towards MV4-11 cell line; format: cell-based; conditions: Homo sapiens
# Experimental: as §1, §2
SMILES,IC50 (U-937),IC50 (MV4-11)
O=C(NCCCn1ccnc1)c1ccc(CN2CCc3ccccc3C2)cc1 [TT-01902],5 to 10 µM,10 to 20 µM
O=C(NCCCn1ccnc1)c1ccc(N2CCCC2)c(C#Cc2ccccc2)c1 [TT-02683],< 1 µM,< 1 µM
O=C(NCc1cccnc1)c1ccc(-n2cccn2)c(C#Cc2ccccc2)c1 [TT-02684],< 1 µM,< 1 µM
O=C(NCCc1c[nH]cn1)c1ccc(-n2cccn2)c(C#Cc2ccccc2)c1 [TT-02686],10 to 20 µM,5 to 10 µM
Cc1nccn1CCCNC(=O)c1ccc(-n2cccn2)c(C#Cc2ccccc2)c1 [TT-02689],1 to 5 µM,1 to 5 µM
O=C(Nc1ccc(Cn2ccnc2)cc1)c1ccc(-n2cccn2)c(C#Cc2ccccc2)c1 [TT-02690],10 to 20 µM,5 to 10 µM
Cc1cc(SCCNC(=O)c2ccc(-n3cccn3)c(C#Cc3ccccc3)c2)[nH]n1 [TT-02691],5 to 10 µM,10 to 20 µM
Cc1ccn(CCNC(=O)c2ccc(-n3cccn3)c(C#Cc3ccccc3)c2)n1 [TT-02692],< 1 µM,> 20 µM
O=C(NCCn1ccnc1)c1ccc(-n2cccn2)c(C#Cc2ccccc2)c1 [TT-02694],< 1 µM,> 20 µM
O=C(NCCCn1ccnc1)c1ccc(-n2cccn2)c(C#Cc2ccccn2)c1 [TT-02695],< 1 µM,< 1 µM
O=C(NCCc1nccs1)c1ccc(-n2cccn2)c(C#Cc2ccccc2)c1 [TT-02707],< 1 µM,> 20 µM
O=C(NCCCn1cccn1)c1ccc(-n2cccn2)c(C#Cc2ccccc2)c1 [TT-02709],< 1 µM,> 20 µM
Cn1ccnc1CNC(=O)c1ccc(-n2cccn2)c(C#Cc2ccccc2)c1 [TT-02713],< 1 µM,> 20 µM
O=C(NCCCc1cn[nH]c1)c1ccc(-n2cccn2)c(C#Cc2ccccc2)c1 [TT-02715],< 1 µM,< 1 µM
O=C(NCCCCn1ccnc1)c1ccc(-n2cccn2)c(C#Cc2ccccc2)c1 [TT-02717],< 1 µM,< 1 µM
Cn1cnc(CNC(=O)c2ccc(-n3cccn3)c(C#Cc3ccccc3)c2)c1 [TT-02721],> 20 µM,> 20 µM
O=C(NCCCn1ccnc1)c1ccc(-n2cnnc2)c(C#Cc2ccccc2)c1 [TT-02731],< 1 µM,< 1 µM
Cc1nncn1-c1ccc(C(=O)NCCCn2ccnc2)cc1C#Cc1ccccc1 [TT-02732],< 1 µM,< 1 µM
O=C(NCCCn1ccnc1)c1ccc(Oc2ccccc2)c(C#Cc2ccccc2)c1 [TT-02741],< 1 µM,< 1 µM
Cc1ccc(C#Cc2cc(C(=O)NCCCn3ccnc3)ccc2-n2cccn2)cc1 [TT-02745],< 1 µM,< 1 µM
O=C(NCCCn1ccnc1)c1ccc(-n2cccn2)c(C#Cc2ccc(F)cc2)c1 [TT-02746],< 1 µM,< 1 µM
O=C(NCCCn1ccnc1)c1ccc(-n2cccn2)c(C#Cc2ccc(C(F)(F)F)cc2)c1 [TT-02747],5 to 10 µM,10 to 20 µM
O=C(NCCCn1ccnc1)c1ccc(-n2cccn2)c(C#Cc2cccc(Cl)c2)c1 [TT-02749],< 1 µM,< 1 µM
O=C(NCCCn1ccnc1)c1ccc(-n2cccn2)c(C#Cc2ccccc2Cl)c1 [TT-02750],< 1 µM,< 1 µM

SMILES,IC50 (U-937),IC50 (MV4-11)
O=C(NCCCn1ccnc1)c1ccc(-n2cccn2)c(C#Cc2ccccc2C(F)(F)F)c1 [TT-02751],< 1 µM,< 1 µM
C#Cc1cc(C(=O)NCCCn2ccnc2)ccc1-n1cccn1 [TT-02752],10 to 20 µM,5 to 10 µM
O=C(NCCCn1ccnc1)c1cc(C#Cc2ccccc2)c2nccn2c1 [TT-02760],10 to 20 µM,10 to 20 µM
Cn1ccnc1C(C)(O)CC1CCCN1C(=O)c1ccc(-n2cccn2)c(C#Cc2ccccc2)c1 (stereo not drawn) [TT-02793],5 to 10 µM,> 20 µM
O=C(c1ccc(-n2cccn2)c(C#Cc2ccccc2)c1)N1CCCC(Cn2ccnc2)C1 (stereo not drawn) [TT-02796],10 to 20 µM,10 to 20 µM
Cc1nccn1CCN(C)C(=O)c1ccc(-n2cccn2)c(C#Cc2ccccc2)c1 [TT-02797],> 20 µM,> 20 µM
Cc1nonc1CN(C)C(=O)c1ccc(-n2cccn2)c(C#Cc2ccccc2)c1 [TT-02800],1 to 5 µM,10 to 20 µM
Cc1cc(CN(C)C(=O)c2ccc(-n3cccn3)c(C#Cc3ccccc3)c2)no1 [TT-02801],1 to 5 µM,10 to 20 µM
Cc1noc(CNC(=O)c2ccc(-n3cccn3)c(C#Cc3ccccc3)c2)n1 [TT-02802],1 to 5 µM,> 20 µM
Cn1cnnc1C1CCN(C(=O)c2ccc(-n3cccn3)c(C#Cc3ccccc3)c2)C1 (stereo not drawn) [TT-02803],< 1 µM,> 20 µM
O=C(NCCn1cncn1)c1ccc(-n2cccn2)c(C#Cc2ccccc2)c1 [TT-02804],< 1 µM,> 20 µM
Cc1nc(C)n(CCNC(=O)c2ccc(-n3cccn3)c(C#Cc3ccccc3)c2)n1 [TT-02805],< 1 µM,1 to 5 µM
Cc1cc(C)n(CCNC(=O)c2ccc(-n3cccn3)c(C#Cc3ccccc3)c2)n1 [TT-02927],5 to 10 µM,10 to 20 µM
Cn1nnnc1SCCNC(=O)c1ccc(-n2cccn2)c(C#Cc2ccccc2)c1 [TT-02928],5 to 10 µM,10 to 20 µM
O=C(NCCN1CCCC1=O)c1ccc(-n2cccn2)c(C#Cc2ccccc2)c1 [TT-02929],> 20 µM,> 20 µM
CC(CNC(=O)c1ccc(-n2cccn2)c(C#Cc2ccccc2)c1)n1cncn1 (stereo not drawn) [TT-02930],> 20 µM,> 20 µM
O=C(NCc1ccco1)c1ccc(-n2cccn2)c(C#Cc2cccnc2)c1 [TT-02931],10 to 20 µM,> 20 µM
CCc1nnc(NC(=O)c2ccc(-n3cccn3)c(C#Cc3cccnc3)c2)s1 [TT-02932],> 20 µM,> 20 µM
CC(CNC(=O)c1ccc(-n2cccn2)c(C#Cc2cccnc2)c1)n1cncn1 (stereo not drawn) [TT-02933],> 20 µM,> 20 µM
O=C(NCCCc1ccccn1)c1ccc(-n2cccn2)c(C#Cc2ccccc2)c1 [TT-02935],5 to 10 µM,10 to 20 µM
O=C(NCCCN1CCOCC1)c1ccc(-n2cccn2)c(C#Cc2cccnc2)c1 [TT-02936],> 20 µM,> 20 µM
O=C(NCCCN1CCCC1=O)c1ccc(-n2cccn2)c(C#Cc2cccnc2)c1 [TT-02937],> 20 µM,> 20 µM
O=C(NCCN1C(=O)CSC1=O)c1ccc(-n2cccn2)c(C#Cc2cccnc2)c1 [TT-02938],> 20 µM,> 20 µM
Cn1nnnc1SCCNC(=O)c1ccc(-n2cccn2)c(C#Cc2cccnc2)c1 [TT-02939],5 to 10 µM,> 20 µM

SMILES,IC50 (U-937),IC50 (MV4-11)
Cc1n[nH]c(SCCNC(=O)c2ccc(-n3cccn3)c(C#Cc3cccnc3)c2)n1 [TT-02940],10 to 20 µM,> 20 µM
O=C(NCCCc1ccccn1)c1ccc(-n2cccn2)c(C#Cc2cccnc2)c1 [TT-02941],5 to 10 µM,10 to 20 µM
Cc1nn(-c2ccc(C(=O)NCCc3cnccn3)cc2C#Cc2ccccc2)c(C)c1C [TT-02942],5 to 10 µM,> 20 µM
O=C(NCCc1cnccn1)c1ccc(-n2cccn2)c(C#Cc2ccccc2)c1 [TT-02943],1 to 5 µM,10 to 20 µM
O=C(NCc1cccnc1)c1ccc(-n2cccn2)c(C#Cc2cccnc2)c1 [TT-02944],10 to 20 µM,> 20 µM
Cc1ccnn1CCNC(=O)c1ccc(-n2cccn2)c(C#Cc2cccnc2)c1 [TT-02945],> 20 µM,> 20 µM
CC(C)(C)NC(=O)c1ccc(-n2cccn2)c(C#Cc2ccccn2)c1 [TT-02946],5 to 10 µM,> 20 µM
O=C(NCc1ccco1)c1ccc(-n2cccn2)c(C#Cc2ccccn2)c1 [TT-02947],< 1 µM,> 20 µM
CCc1nnc(NC(=O)c2ccc(-n3cccn3)c(C#Cc3ccccn3)c2)s1 [TT-02948],> 20 µM,> 20 µM
Cc1nn(-c2ccc(C(=O)NCCc3c[nH]cn3)cc2C#Cc2ccccc2)c(C)c1C [TT-02949],5 to 10 µM,10 to 20 µM
O=C(NCCCn1ccnc1)c1ccc(-n2cccn2)cc1 [TT-03071],1 to 5 µM,1 to 5 µM
O=C(NCCCn1ccnc1)c1cccc(Br)c1 [TT-03073],> 20 µM,> 20 µM
Cc1ccc(C(=O)NCCCn2ccnc2)cc1C#Cc1ccccc1 [TT-03196],< 1 µM,< 1 µM
O=C(NCCCc1cn[nH]c1)c1ccc(-n2cccn2)c(C#Cc2cccc(F)c2)c1 [TT-03198],< 1 µM,< 1 µM
Cc1ccc(C#Cc2cc(C(=O)NCCCc3cn[nH]c3)ccc2-n2cccn2)cc1 [TT-03201],< 1 µM,< 1 µM
O=C(NCCCc1cn[nH]c1)c1ccc(-n2cccn2)c(C#Cc2ccccc2F)c1 [TT-03211],< 1 µM,< 1 µM
O=C(NCCCn1ccnc1)c1ccc(-n2cccn2)c(C#Cc2cccc(F)c2)c1 [TT-03217],< 1 µM,< 1 µM
O=C(NCCCn1ccnc1)c1ccc(-n2cccn2)c(C#Cc2ccc(Cl)cc2)c1 [TT-03221],< 1 µM,< 1 µM
CC1CN(c2ncc(C(=O)NCCCc3cn[nH]c3)cc2C#Cc2ccc(F)cc2)CCN1 (stereo not drawn) [TT-03756],–,< 1 µM
CC1CC(C)CN(c2ncc(C(=O)NCCCc3cn[nH]c3)cc2C#Cc2ccc(F)cc2)C1 (stereo not drawn) [TT-03761],–,< 1 µM
COC1CCCN(c2ncc(C(=O)NCCCc3cn[nH]c3)cc2C#Cc2ccc(F)cc2)C1 (stereo not drawn) [TT-03762],–,< 1 µM
O=C(NCCCc1cn[nH]c1)c1cnc(N2CCOCC2)c(C#Cc2ccc(F)cc2)c1 [TT-03767],–,< 1 µM
O=C1CN(c2ncc(C(=O)NCCCc3cn[nH]c3)cc2C#Cc2ccc(F)cc2)CCN1 [TT-03768],–,< 1 µM
CC1CN(c2ncc(C(=O)NCCCc3cn[nH]c3)cc2C#Cc2ccc(F)cc2)CCN1C(=O)OC(C)(C)C (stereo not drawn) [TT-03772],–,< 1 µM
